# According to patent US20070037752A1, “Novel alanyl-amino peptidase inhibitors for functionally influencing different cells and treating immunological, inflammatory, neuronal, and other diseases” (priority 2003, published 2007):
# Where two headings read alike, the source gives them in different places.
# Molecular target: alanyl aminopeptidases (APN) (Homo sapiens, UniProt P15144)
# Experiment: Inhibition of alanyl aminopeptidase enzymatic activity, fluorogenic substrate (Ala)2-rhodamine 110
# Assay type: biochemical
# Description: The inhibition characteristics measured are referred to as IC-50 values or ID50 values (the latter marked with “*”) for said enzyme. The enzymatic activity was determined by means of the fluorogenic substrate/product (Ala)2-rhodamine 110.
# [1] = Table 9, unstarred values, read-out: IC50APN
# [2] = Table 9, starred values = ID50, read-out: ID50 APN (values marked with *)
# Sequence of alanyl aminopeptidases (APN) (P15144 whole entry, species assumed): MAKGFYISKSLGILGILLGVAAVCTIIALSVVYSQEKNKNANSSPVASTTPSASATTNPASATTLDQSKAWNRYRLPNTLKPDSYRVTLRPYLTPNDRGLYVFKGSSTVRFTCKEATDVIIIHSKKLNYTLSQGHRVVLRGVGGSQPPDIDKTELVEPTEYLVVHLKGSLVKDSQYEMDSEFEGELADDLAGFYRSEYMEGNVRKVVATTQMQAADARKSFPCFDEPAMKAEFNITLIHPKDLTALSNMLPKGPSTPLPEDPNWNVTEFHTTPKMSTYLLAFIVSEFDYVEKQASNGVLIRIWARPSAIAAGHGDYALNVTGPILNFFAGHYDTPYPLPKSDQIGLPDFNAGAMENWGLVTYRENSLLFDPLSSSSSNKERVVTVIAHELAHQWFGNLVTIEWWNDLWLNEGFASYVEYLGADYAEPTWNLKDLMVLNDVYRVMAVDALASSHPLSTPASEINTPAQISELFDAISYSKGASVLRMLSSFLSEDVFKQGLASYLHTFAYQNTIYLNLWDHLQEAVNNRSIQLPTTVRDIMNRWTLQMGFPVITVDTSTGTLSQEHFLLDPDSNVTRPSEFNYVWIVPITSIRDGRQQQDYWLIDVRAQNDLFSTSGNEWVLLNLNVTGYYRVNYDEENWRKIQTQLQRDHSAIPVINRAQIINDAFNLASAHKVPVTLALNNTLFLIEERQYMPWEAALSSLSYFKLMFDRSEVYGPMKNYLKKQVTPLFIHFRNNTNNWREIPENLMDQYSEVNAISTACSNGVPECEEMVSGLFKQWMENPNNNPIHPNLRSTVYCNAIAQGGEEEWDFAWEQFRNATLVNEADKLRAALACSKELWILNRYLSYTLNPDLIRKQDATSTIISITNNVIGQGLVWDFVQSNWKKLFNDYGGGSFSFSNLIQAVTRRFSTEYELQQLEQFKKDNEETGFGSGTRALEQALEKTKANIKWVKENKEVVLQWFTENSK
structure (smiles),measurement,setting,value
CCOC(=O)c1cc(Br)ccc1-c1ccc(/C=C2\C(=O)N=C(O)C(C#N)=C2C)o1 [A9.098],IC50,[1],49.9 µM
CCOC(=O)c1cc(-c2ccc(/C=C3/C(=O)NC(=O)C(C#N)=C3C)o2)ccc1Cl [A9.099],IC50,[1],52.1 µM
Cc1ccc(Cn2c(SCCC(=O)O)nc3c2c(=O)[nH]c(=O)n3C)cc1 [A9.100],IC50,[2],53.2 µM
CCCOC(=O)c1cc(-c2ccc(/C=C3\C(=O)N(CCO)C(=O)C(C#N)=C3C)o2)ccc1Cl [A9.101],IC50,[1],54 µM
Cc1ccccc1C(=O)N1CCC(C(=O)Nc2ccc(OCc3ccccc3)cc2)CC1 [A9.102],IC50,[1],54 µM
Cc1ccc(/C=C(\NC(=O)c2ccccc2)C(=O)NCCN2CCOCC2)o1 [A9.103],IC50,[2],55 µM
O=C(CNS(=O)(=O)c1ccc2c(c1)OCCO2)N/N=C/c1ccco1 [A9.104],IC50,[1],55.6 µM
CC1(C)N=C(N)N=C(N)N1c1c(Cl)cccc1Cl [A9.105],IC50,[1],59.8 µM
O=C1Nc2cc(C(=O)N3CCN(c4ccccc4)CC3)ccc2NC1CSCc1ccccc1F (centres unmarked) [A9.106],IC50,[1],61.5 µM
O=c1cc(CSc2nnc(-c3ccco3)c(-c3ccco3)n2)c2ccccc2[nH]1 [A9.107],IC50,[2],65.1 µM
Cc1nc(NC(C)C(=O)O)c2nc(C)oc2n1 (centres unmarked) [A9.108],IC50,[1],65.8 µM
Cc1ccc(C(=O)N/C(=C\c2ccco2)C(=O)N2CCSCC2)cc1C [A9.109],IC50,[1],68.9 µM
Cc1ccc(S(=O)(=O)N2CCC(C(=O)N/N=C/c3ccco3)CC2)cc1 [A9.110],IC50,[1],69.3 µM
COc1ccc(/C=C2\c3ccccc3-c3ccc(C(=O)CCCCN4CCCCC4)cc32)cc1OC [A9.111],IC50,[1],74.6 µM
CCc1c(C)nc2ccccc2c1SCC(=O)O [A9.112],IC50,[1],77.4 µM
Cn1c(=O)c2c(ncn2CC(=O)N/N=C/C=C\c2ccco2)n(C)c1=O [A9.113],IC50,[2],79.8 µM
CCc1ccc(NC(=O)C2CCN(S(=O)(=O)c3ccc(Cl)cc3)CC2)cc1 [A9.114],IC50,[2],80.4 µM
CCCOC(=O)C(NC(=O)c1ccc(OC)cc1)(N1CCOCC1)C(F)(F)F (centres unmarked) [A9.115],IC50,[1],90.2 µM
CC1(C)CC(CC/N=C/c2ccccc2)(Cc2ccccc2)CCO1 (centres unmarked) [A9.116],IC50,[1],93.6 µM
O=C(OCCN1CCCCC1)C1c2ccccc2Oc2ccccc21 [A9.117],IC50,[2],94.8 µM
Cc1cccc[n+]1OC(=O)N1CCCCC1 [A9.118],IC50,[2],96.7 µM
C#CCN1C(c2cnccn2)=NC(CC(C)C)C1C(=O)Nc1c(C)cccc1C (centres unmarked) [A9.119],IC50,[2],103 µM
COc1c(OCC(O)C(C)(C)O)ccc2c1N=C1OC=CC1C2OC (centres unmarked) [A9.120],IC50,[2],117 µM
CC1=C(C#N)C(=O)N(CCO)C(=O)/C1=C\c1ccc(-c2ccc(C)c(Cl)c2)o1 [A9.121],IC50,[1],125 µM
CC(=O)Oc1ccc2c(=O)c(-c3cnn(-c4ccccc4)c3)c(C(F)(F)F)oc2c1OC(C)=O [A9.122],IC50,[2],134 µM
NCCCNC(=O)C1Cc2ncn(Cc3ccccc3[N+](=O)[O-])c2CN1Cc1ccccn1 (centres unmarked) [A9.123],IC50,[1],138 µM
CCCOC(=O)C(NC(=O)c1ccccc1)(N1CCOCC1)C(F)(F)F (centres unmarked) [A9.125],IC50,[2],186 µM
CC(C)Oc1ccc(/C=N/CCC2(c3ccccc3)CCOC(C)(C)C2)cc1 (centres unmarked) [A9.126],IC50,[2],197 µM
O=C(/C=C/c1ccco1)NCCCN1CCOCC1 [A9.127],IC50,[2],208 µM
CC(C)N1CCN(Cc2ccccc2[N+](=O)[O-])CC1 [A9.128],IC50,[2],252 µM
Brc1cc2c(cc1Br)OCCOCCOCCOCCOCCO2 [A10.001],IC50,"Table 10, read-out: IC50APN",0.7 µM
O=C(N/N=C\c1ccco1)c1ccc(S(=O)(=O)N2CCCCCC2)cc1 [A10.002],IC50,"Table 10, read-out: IC50APN",8 µM
COc1ccc(Cl)cc1C(=O)N/C(=C/c1ccco1)C(=O)N1CC2CC(C1)c1cccc(=O)n1C2 (centres unmarked) [A10.003],IC50,"Table 10, read-out: IC50APN",8.1 µM
C/C(=N/O)c1ccc2c(c1)OCCOCCOc1cc(/C(C)=N\O)ccc1OCCOCCO2 [A10.004],IC50,"Table 10, read-out: IC50APN",8.6 µM
Cc1ccc(C(=O)N/C(=C\c2ccco2)C(=O)N2CC3CC(C2)c2cccc(=O)n2C3)cc1 (centres unmarked) [A10.005],IC50,"Table 10, read-out: IC50APN",11 µM
Cc1ccc(C(=O)N/C(=C\c2ccco2)C(=O)N2CC3CC(C2)c2cccc(=O)n2C3)cc1C (centres unmarked) [A10.006],IC50,"Table 10, read-out: IC50APN",11.8 µM
Cc1ccc(C(=O)N/C(=C\c2ccco2)C(=O)N2CCCN(C)CC2)cc1C [A10.007],IC50,"Table 10, read-out: IC50APN",32.1 µM
CC1CC(=O)N(C(=O)CCBr)c2ccc([N+](=O)[O-])cc2N1C(=O)CCBr (centres unmarked) [A10.008],IC50,"Table 10, read-out: IC50APN",99.8 µM
N/C(=N\[N+](=O)[O-])N/N=C/c1ccco1 [A11.001],IC50,"Table 11, read-out: IC50APN",7.6 µM
CCN(CC)c1ccc(/C=C(\NC(=O)c2ccccc2)C(=O)N/N=C/c2ccc(O)c([N+](=O)[O-])c2)cc1 [A11.002],IC50,"Table 11, read-out: IC50APN",7.6 µM
O=C(Cc1ccc(Br)c2ccccc12)N/N=C/c1ccc([N+](=O)[O-])c(O)c1 [A11.003],IC50,"Table 11, read-out: IC50APN",7 µM
N#Cc1cc(N2CC3CC(C2)c2cccc(=O)n2C3)c([N+](=O)[O-])cc1C#N (centres unmarked) [A11.004],IC50,"Table 11, read-out: IC50APN",8.9 µM
O=C(N/N=C(/CC(=O)c1cccs1)C(F)(F)F)c1cccc([N+](=O)[O-])c1 [A11.005],IC50,"Table 11, read-out: IC50APN",10.7 µM
Cc1ccc(C)c(NC(=O)C(=O)N/N=C/c2cc([N+](=O)[O-])ccc2O)c1 [A11.006],IC50,"Table 11, read-out: IC50APN",10.8 µM
CC(NC(=O)C(=O)N/N=C\c1cc([N+](=O)[O-])ccc1O)c1ccccc1 (centres unmarked) [A11.007],IC50,"Table 11, read-out: IC50APN",11.4 µM
CN(C)CCCN1CCN(c2nc(N(C)CC(=O)O)c3ncn(Cc4ccc([N+](=O)[O-])cc4)c3n2)CC1 [A11.008],IC50,"Table 11, read-out: IC50APN",11.8 µM
CCN(CC)C(=O)c1cc([N+](=O)[O-])ccc1C(=O)O [A11.009],IC50,"Table 11, read-out: IC50APN",12.1 µM
CC(C)C/C=N/NC(=O)c1ccc([N+](=O)[O-])cc1Cl [A11.010],IC50,"Table 11, read-out: IC50APN",15.6 µM
O=[N+](O)CC(c1ccccc1)P(=O)(c1ccccc1)c1ccccc1 (centres unmarked) [A11.011],IC50,"Table 11, read-out: IC50APN",16.3 µM
O=C(Cc1ccc([N+](=O)[O-])cc1)N1CCOCC1 [A11.012],IC50,"Table 11, read-out: IC50APN",19.1 µM
O=C(N/N=C/c1cc([N+](=O)[O-])ccc1O)c1ccc(O)cc1O [A11.013],IC50,"Table 11, read-out: IC50APN",20.2 µM
CC(=O)Oc1ccc([N+](=O)[O-])cc1/C=N/NC(=O)COc1cc(C)ccc1C(C)C [A11.014],IC50,"Table 11, read-out: IC50APN",20.3 µM
O=C1C=CC(=O)N1c1cc([N+](=O)[O-])ccc1F [A11.015],IC50,"Table 11, read-out: IC50APN",20.8 µM
O=C1c2cccc3c(Br)c([N+](=O)[O-])cc(c23)C(=O)N1c1cccc([N+](=O)[O-])c1 [A11.016],IC50,"Table 11, read-out: IC50APN",23.3 µM
O=C(Nc1ccc(O)cc1C(=O)O)c1cccc(N2C(=O)c3cccc4c([N+](=O)[O-])ccc(c34)C2=O)c1 [A11.017],IC50,"Table 11, read-out: IC50APN",23.6 µM
O=C1CNC(c2cccc([N+](=O)[O-])c2)N1O (centres unmarked) [A11.018],IC50,"Table 11, read-out: IC50APN",26.4 µM
CCCCCCCSc1nnc2c(n1)CC(C(=O)c1ccccc1)=Nc1ccccc1-2 [A11.019],IC50,"Table 11, read-out: IC50APN",28.9 µM
C=CCN1C(=O)C(C#N)=C(C)/C(=C\c2ccc(-c3cc(C)c(C)cc3[N+](=O)[O-])o2)C1=O [A11.020],IC50,"Table 11, read-out: IC50APN",29.3 µM
O=c1[nH]cc([N+](=O)[O-])cc1C(F)(F)F [A11.021],IC50,"Table 11, read-out: IC50APN",29.9 µM
CCOC(=O)C(C#N)c1c([N+](=O)[O-])c(=O)n(-c2ccccc2)c2ccccc12 (centres unmarked) [A11.022],IC50,"Table 11, read-out: IC50APN",30 µM
O=C(CC1(O)CCCCC1)N/N=C/c1ccccc1[N+](=O)[O-] [A11.023],IC50,"Table 11, read-out: IC50APN",31.1 µM
CC(=O)N1CCOC1(C)c1ccc([N+](=O)[O-])cc1 (centres unmarked) [A11.024],IC50,"Table 11, read-out: IC50APN",32.8 µM
NCCCCCC(=O)C[N+](=O)[O-] [A11.025],IC50,"Table 11, read-out: IC50APN",33.2 µM
O=[N+]([O-])c1ncn(CN2CCOCC2)n1 [A11.026],IC50,"Table 11, read-out: IC50APN",36.8 µM
O=C(Nc1ccc(F)cc1)c1ccc([NH+]([O-])O)o1 (centres unmarked) [A11.027],IC50,"Table 11, read-out: IC50APN",37.4 µM
O=C(OCC1CCCO1)c1cc([N+](=O)[O-])cc([N+](=O)[O-])c1 (centres unmarked) [A11.028],IC50,"Table 11, read-out: IC50APN",39.3 µM
O=C(N/N=C/c1cccc([N+](=O)[O-])c1)c1ccco1 [A11.029],IC50,"Table 11, read-out: IC50APN",45.4 µM
O=C(C[N+](=O)[O-])c1cc2occc2[nH]1 [A11.030],IC50,"Table 11, read-out: IC50APN",49.5 µM
O=C(N/N=C/c1cc(Br)ccc1OC(=O)c1ccc([N+](=O)[O-])cc1)/C(=C\c1ccc2c(c1)OCO2)NC(=O)c1ccccc1 [A11.031],IC50,"Table 11, read-out: IC50APN",54.2 µM
O=C(CNC(=O)c1ccccc1F)N/N=C/c1ccc([N+](=O)[O-])o1 [A11.032],IC50,"Table 11, read-out: IC50APN",60 µM
CC1CC(=O)N(C(=O)CCBr)c2ccc([N+](=O)[O-])cc2N1C(=O)CCBr (centres unmarked) [A11.033],IC50,"Table 11, read-out: IC50APN",99.8 µM
O=C(Nc1ccccc1F)c1ccc([N+](=O)[O-])o1 [A11.034],IC50,"Table 11, read-out: IC50APN",62.4 µM
COc1cccc(C(=O)NCC(=O)N/N=C/c2ccc([N+](=O)[O-])o2)c1 [A11.035],IC50,"Table 11, read-out: IC50APN",222 µM
COC(=O)c1cc(C(=O)NC2CCSC2=O)cc([N+](=O)[O-])c1 (centres unmarked) [A11.036],IC50,"Table 11, read-out: IC50APN",238 µM
O=C(N/C(=C\c1cccc([N+](=O)[O-])c1)C(=O)N(CCO)CCO)c1ccco1 [A11.037],IC50,"Table 11, read-out: IC50APN",244 µM
C/C(=N\NC(=O)COc1ccc(C)cc1[NH+]([O-])O)c1ccco1 (centres unmarked) [A11.038],IC50,"Table 11, read-out: IC50APN",422 µM
O=C(N/N=C/c1cc(Cl)cc([N+](=O)[O-])c1O)c1ccccc1O [A11.039],IC50,"Table 11, read-out: IC50APN",5.8 µM
Brc1cc2c(cc1Br)OCCOCCOCCOCCOCCO2 [A12.002],IC50,"Table 12, read-out: IC50APN",0.7 µM
CCOC(=O)c1ccc(-c2ccc(/C=C3\C(=O)N(CCO)C(=O)C(C#N)=C3C)o2)cc1 [A12.004],IC50,"Table 12, read-out: IC50APN",2.7 µM
COC(=O)c1ccc(-c2ccc(/C=C3\C(=O)N(CCCO)C(=O)C(C#N)=C3C)o2)cc1 [A12.005],IC50,"Table 12, read-out: IC50APN",5 µM
